From US20180187184A1, “NOVEL CONSTRUCTS AND SCREENING METHODS” (Systasy Bioscience GmbH, priority 2016, published 2018)
Read-outs that look alike come from different tables or passages of the source.

Assays:
primary neurons = assay: Rotenone dose-response cell viability assay (nuclei count, genomic DNA and total RNA quantification); assay type: cell-based, mouse; conditions: for IC50: Mus musculus, Primary neuron, 168 h
Protocol: Cells were incubated under appropriate culturing conditions until DIV14.
Cell nuclei were stained on DIV14 with Hoechst dye and evaluated with a Zeiss Observer Z1 microscope. Subsequently, the neuron cultures were lysed and gDNA as well as total RNA was isolated using the Qiagen AllPrep DNA/RNA Mini Kit. The gDNA and total RNA concentrations were determined using a UV spectrophotometer.
The present inventors first evaluated changes in the abundance of genomic DNA and total RNA in response to cytotoxic stress within a primary neuron population.

E-SARE sensor = assay: E-SARE luciferase activity in primary neurons upon stimulation; assay type: cell-based, mouse; conditions: DIV14
Source text: For multiplate assays, cells were transfected (for cell lines) using Lipofectamine2000 (Invitrogen) according to the manufacturer's instructions or infected (for primary neurons) by an E-SARE-luciferase containing AAV with 500-1000 AAV GCs per cell.
The assay compares an unstimulated response with a stimulated response.
Finally, the E-SARE sensor not only responds to neuronal silencing (TTX/APV) and synaptic stimulation (BIC/4-AP), but can also be induced by brain-derived neurotrophic factor (BDNF) which is a well-established stimulus with functions in neuronal differentiation and plasticity (FIG. 6C) (Park H and Poo M. Nat Rev Neurosci. 2013 January; 14(1):7-23). The optimized and validated E-SARE sensor has been subsequently used for developing the pooled RNAi screen in primary neurons.

C=C(C)[C@H]1Cc2c(ccc3c2O[C@@H]2COc4cc(OC)c(OC)cc4[C@@H]2C3=O)O1 [rotenone] showed an IC50 (primary neurons; read-out: IC50, genomic DNA content) of 40 nM, an IC50 (primary neurons; read-out: IC50, total RNA content) of 15 nM and an IC50 (primary neurons; read-out: IC50, viable cells (pyknotic nuclei filtered out)) of 14 nM. For the same molecule, the “reduction of genomic DNA content” value (primary neurons; rotenone concentrations above 100 nM, 7 days) was ~40%.

B1: brain-derived neurotrophic factor (protein, UniProt P23560 19-247, looked up)
Neurotrophic factor BDNF …: APMKEANIRGQGGLAYPGVRTHGTLESVNGPKAGSRGLTSLADTFEHVIEELLDEDQKVRPNEENNKDADLYTSRVMLSSQVPLEPPLLFLLEEYKNYLDAANMSMRVRRHSDPARRGELSVCDSISEWVTAADKKTAVDMSGGTVTVLEKVPVSKGQLKQYFYETKCNPMGYTKEGCRGIDKRHWNSQCRTTQSYVRALTMDSKKRIGWRFIRIDTSCVCTLTIKRGR
notes: well-established stimulus with functions in neuronal differentiation and plasticity
For B1, the E-SARE sensor activity (E-SARE sensor) was “induced”.
